A short description of series [1]: Cytotoxicity against human BEAS-2B cells assessed as reduction in cell viability after 48 hrs by MTT assay. It counts as toxicity, cell-based.
The subject of another series is A549. Description: Cytotoxicity against human A549 cells assessed as reduction in cell viability after 48 hrs by MTT assay. It counts as functional, cell-based. To be noted: A549, 48 h. (Tetrazolium assays rely on reduction of a dye to a coloured formazan, in cell work by metabolically active cells.)
The nature of series [2]: Drug uptake in human A549 cells overexpressing GLUT1 assessed as increase in fluorescence intensity at 25 uM measured after 1 hr at 37 degreeC by DAPI staining based confocal fluorescence microscopic analysis. It counts as ADME, cell-based. Conditions: a549, 1 h; call rule not given here.
Series [3] can be described thus: Drug uptake in human A549 cells overexpressing GLUT1 assessed as increase in fluorescence intensity at 25 uM measured after 1 hr by DAPI staining based confocal fluorescence microscopic analysis. It counts as ADME, cell-based. To be noted: a549, 1 h.
Series [4] is described as follows: Selectivity index, ratio of IC50 for cytotoxicity against human BEAS-2B cells to IC50 for cytotoxicity against human A549 cells. It counts as toxicity, cell-based. Conditions: BEAS-2B cells and A549 cells, read-out: Ratio IC50.

This is an account of results in ChEMBL document CHEMBL5126504, “A gulose moiety contributes to the belomycin (BLM) disaccharide selective targeting to lung cancer cells” (Eur J Med Chem, 2021).

One may read the IC50 as the concentration that gives 50% inhibition.

On to `CC(=O)OC[C@H]1OC(OCCCCCC(=O)Nc2ccn(C3OC(CO)C(O)C3(F)F)c(=O)n2)[C@@H](O)[C@@H](O)[C@@H]1O` (stereo partly drawn), for which, in series [1], the IC50 at 48 h came out at 7.78 µM. For the same compound, the half-inhibitory concentration (IC50) in the series with A549 is 460 nM.

As for `CC[N+]1=C(/C=C/C=C/C=C2/N(CCCCCC(=O)NCCOCCOC3O[C@@H](CO)[C@H](O)[C@@H](O)[C@@H]3O[C@H]3O[C@H](CO)[C@@H](O)[C@H](OC(N)=O)[C@@H]3O)c3ccc(S(=O)(=O)O)cc3C2(C)C)C(C)(C)c2cc(S(=O)(=O)[O-])ccc21` (stereo partly drawn), the Drug uptake result in series [2] and in series [3] was “Active” each time.

For `CC(=O)OC[C@H]1OC(OCCCCCC(=O)Nc2ccn(C3OC(CO)C(O)C3(F)F)c(=O)n2)[C@H](O)[C@H](O)[C@H]1O` (stereo partly drawn), the IC50 at 48 h in series [1] is 5.43 µM. The selectivity ratio in series [4] came out at 20.9. The half-maximal inhibitory concentration (IC50) in the series with A549 amounted to 260 nM.

As to `NC(=O)O[C@@H]1[C@H](O)[C@@H](O[C@H]2C(OCCCCCC(=O)Nc3ccn(C4OC(CO)C(O)C4(F)F)c(=O)n3)O[C@H](CO)[C@H](O)[C@H]2O)O[C@H](CO)[C@H]1O` (stereo partly drawn), in series [1], the IC50 at 48 h was 2.6 µM. Further, the selectivity ratio in series [4] turned out to be 20. For the same compound, the half-maximal inhibitory concentration (IC50) in the series with A549 was 130 nM.

Turning to `CC[N+]1=C(/C=C/C=C/C=C2/N(CCCCCC(=O)NCCOCCOC3O[C@H](CO)[C@H](O)[C@@H](O)[C@H]3O)c3ccc(S(=O)(=O)O)cc3C2(C)C)C(C)(C)c2cc(S(=O)(=O)[O-])ccc21` (stereo partly drawn), the Drug uptake result in series [2] and in series [3] was “Active” in each case.

On to `CC(=O)OC[C@H]1OC(OCCCCCC(=O)Nc2ccn(C3OC(CO)C(O)C3(F)F)c(=O)n2)[C@@H](O)[C@@H](OC(N)=O)[C@@H]1O` (stereo partly drawn), for which the concentration for half-maximal inhibition (IC50) at 48 h in series [1] stood at 7.77 µM. Also, the IC50 with A549 was determined as 920 nM.

`Nc1ccn([C@@H]2O[C@H](CO)[C@@H](O)C2(F)F)c(=O)n1` [GEMCITABINE]: in series [1], the IC50 at 48 h was 0.037 µM. Also, the selectivity ratio in series [4] was 0.88. Moreover, the IC50 in the series on A549 was found to be 44 nM.

For `CC[N+]1=C(/C=C/C=C/C=C2/N(CCCCCC(=O)NCCOCCOC3O[C@@H](CO)[C@@H](O)[C@H](O)[C@@H]3O[C@H]3O[C@H](CO)[C@@H](O)[C@H](OC(N)=O)[C@@H]3O)c3ccc(S(=O)(=O)O)cc3C2(C)C)C(C)(C)c2cc(S(=O)(=O)[O-])ccc21` (stereo partly drawn), the Drug uptake entry in series [3] is recorded as “Active”.
